Experimental data from patent publication US11571398B1, “Compositions comprising ephedrine or an ephedrine salt and methods of making and using same” (Nexus Pharmaceuticals, Inc., priority 2019, dated 2023).
Where two headings read alike, the source gives them in different places.

Assays:
[1] = HPLC-UV-CAD (QTOF LC-MS) extractables of stoppers: 50/50 IPA/Water extract; format: physicochemical; settings: stopper extract, reflux 12 hours, relative quantitation against standard (12-HDA, Irgacure 184 or Oleamide), average of duplicate injections
[2] = for ICP-MS Results (ppb) Glass vials (2% HNO3): glass vials extracted in 2% HNO3, 60° C.; for ICP-MS Results (ppb) Glass vials (2% HNO3) / ICP-MS Results (ppb) Stoppers (2% HNO3): ~24 h; for ICP-MS Results (ppb) Stoppers (2% HNO3): stoppers extracted in 2% HNO3, 60° C.
[3] = HPLC-UV-CAD (QTOF LC-MS) extractables of stoppers: pH 9.4 extract; format: physicochemical; settings: stopper extract, water pH 9.4, reflux 20 hours; relative quantitation against standard (12-HDA, Irgacure 184 or Oleamide); average of duplicate injections
[4] = 2.5 ppb = lowest calibration concentration
[5] = stoppers, refluxed aqueous solution pH 3.4, 2.5 ppb = lowest calibration concentration

## Cc1cc(C(C)(C)C)cc(S(=O)(=O)O)c1 [5-(tert-Butyl)-3-toluenesulfonic acid]
[1]
  Est. Conc. of extractable (possible identification), HPLC-UV-CAD: 0.25 µg/mL

## CCCCCCCCCCCC(=O)O [Lauric acid]
[1]
  Est. Conc. of extractable (possible identification), HPLC-UV-CAD: <0.5 µg/mL

## Copper
[2]; [4]
  ICP-MS Results (ppb) Glass vials (2% HNO3): 3.7 ppb
[2]; pH 3.4
  ICP-MS Results (ppb) Stoppers (Reflux pH 3.4): <2.5 ppb

## CCCC(=O)C(O)c1ccccc1 (stereo not shown) [Lot 1-Hydroxy-1-phenyl-2-pentanone]
[3]
  Est. Conc. of extractable (possible identification), HPLC-UV-CAD: 0.10 µg/mL
[1]
  Est. Conc. of extractable (possible identification), HPLC-UV-CAD: 30.47 µg/mL

## Lead
[2]; [4]
  ICP-MS Results (ppb) Glass vials (2% HNO3): <2.5 ppb
  ICP-MS Results (ppb) Stoppers (2% HNO3): <2.5 ppb
[2]; [5]
  ICP-MS Results (ppb) Stoppers (Reflux pH 3.4): <2.5 ppb

## Laureth-3
[1]
  Est. Conc. of extractable (possible identification), HPLC-UV-CAD: <0.5 µg/mL

## Laureth-9
[1]
  Est. Conc. of extractable (possible identification), HPLC-UV-CAD: <0.5 µg/mL

## CCCCCC[C@@H](O)C/C=C\CCCCCCCC(=O)O [Ricinoleic acid]
[1]
  Est. Conc. of extractable (possible identification), HPLC-UV-CAD: <0.5 µg/mL

## Lithium
[2]; [4]
  ICP-MS Results (ppb) Glass vials (2% HNO3): 2.6 ppb
[2]; pH 3.4
  ICP-MS Results (ppb) Stoppers (Reflux pH 3.4): <2.5 ppb

## Cobalt
[2]; [4]
  ICP-MS Results (ppb) Glass vials (2% HNO3): 2.6 ppb
[2]; pH 3.4
  ICP-MS Results (ppb) Stoppers (Reflux pH 3.4): <2.5 ppb

## Arsenic
[2]; [4]
  ICP-MS Results (ppb) Glass vials (2% HNO3): <2.5 ppb
  ICP-MS Results (ppb) Stoppers (2% HNO3): <2.5 ppb
[2]; [5]
  ICP-MS Results (ppb) Stoppers (Reflux pH 3.4): <2.5 ppb

## O=S(O)S(=O)O [Dithionous acid]
[3]
  Est. Conc. of extractable (possible identification), HPLC-UV-CAD: 3.52 µg/mL

## CCCCCCCCCCCCCCCC(N)=O [Palmitamide]
[1]
  Est. Conc. of extractable (possible identification), HPLC-UV-CAD: <0.5 µg/mL

## Laureth-4
[1]
  Est. Conc. of extractable (possible identification), HPLC-UV-CAD: <0.5 µg/mL

## OCCOCCOCCO [Triethylene glycol]
[3]
  Est. Conc. of extractable (possible identification), HPLC-UV-CAD: <0.5 µg/mL
[1]
  Est. Conc. of extractable (possible identification), HPLC-UV-CAD: <0.5 µg/mL

## CCCCCCCCCCCCCCCC(=O)O [Palmitic acid]
[1]
  Est. Conc. of extractable (possible identification), HPLC-UV-CAD: 10.74 µg/mL

## CCCCCCCCCCCCCCCCCC(N)=O [Stearamide]
[1]
  Est. Conc. of extractable (possible identification), HPLC-UV-CAD: <0.5 µg/mL

## CCCCCCCCCCCCCC(=O)O [Myristic acid]
[1]
  Est. Conc. of extractable (possible identification), HPLC-UV-CAD: <0.5 µg/mL

## C1COCCOCCSSCCOCCO1
[1]
  Est. Conc. of extractable (possible identification), HPLC-UV-CAD: <0.5 µg/mL

## Antimony
[2]; [4]
  ICP-MS Results (ppb) Glass vials (2% HNO3): <2.5 ppb
[2]; pH 3.4
  ICP-MS Results (ppb) Stoppers (Reflux pH 3.4): <2.5 ppb

## CCCCCCCCCCCC(=O)NCCC[N+](C)(C)CC(=O)[O-] [Lauramidopropyl betaine]
[1]
  Est. Conc. of extractable (possible identification), HPLC-UV-CAD: <0.5 µg/mL

## Cadmium
[2]; [4]
  ICP-MS Results (ppb) Glass vials (2% HNO3): <2.5 ppb
  ICP-MS Results (ppb) Stoppers (2% HNO3): <2.5 ppb
[2]; [5]
  ICP-MS Results (ppb) Stoppers (Reflux pH 3.4): <2.5 ppb

## CCCCOCCOCCOC(C)=O [Butyldiglycol acetate]
[1]
  Est. Conc. of extractable (possible identification), HPLC-UV-CAD: <0.5 µg/mL

## CCCCCCCCCCCCOS(C)(=O)=O [Dodecyl methanesulfonate]
[1]
  Est. Conc. of extractable (possible identification), HPLC-UV-CAD: 0.65 µg/mL

## CCCCCCCC/C=C\CCCCCCCC(N)=O [Oleamide]
[1]
  Est. Conc. of extractable (possible identification), HPLC-UV-CAD: <0.5 µg/mL
